The source of these data is patent US10907214B2, “Methods for predicting drug responsiveness in cancer patients” (Oncology Venture ApS, priority 2016, dated 2021).

The subject of the assay is patients having breast cancer. In words: Clinical trial 2: retrospective analysis, breast cancer patients treated with cisplatin, stratified by biomarkers. Conditions: Trial 2, breast cancer, neoadj, N=24. The assay is classed as in vivo, human. From the text: Table 5 below summarizes the results of these studies.

Turning to `N.N.[Cl][Pt][Cl]` [Cisplatin, cisplatin], the “overall response rate (ORR)” value (patients predicted in bottom 10% of responsiveness) was “ORR 50%” and the “overall response rate (ORR)” value (patients predicted in top 10% of responsiveness) was “ORR 100%”.
